Experimental data: patent US20070197522A1, “Dpp-iv inhibitors” (priority 2004, published 2007)
Counter-ions that a name gives are not always drawn. Like-named read-outs stand apart in the source and are kept apart here.

Target: T1, DPP-IV (Homo sapiens, UniProt P27487)
T1 construct: Soluble human DPP-IV lacking the transmembrane anchor (Gly31-Pro766) was expressed in a recombinant YEAST-strain; Pre-Pro-alpha-mating factor leader (secretion fusion) (N, cleaved yes); made in house
Test: Inhibition of DPP-IV peptidase activity, continuous fluorimetric assay (Gly-Pro-AMC cleavage)
Assay type: biochemical, human and porcine
Procedure: Inhibition of DPP-IV peptidase activity was monitored with a continuous fluorimetric assay. This assay is based on the cleavage of the substrate Gly-Pro-AMC (Bachem) by DPP-IV, releasing free AMC. The assay is carried out in 96-well microtiterplates. In a total volume of 100 μL, compounds are preincubated with 50 pM DPP-IV employing a buffer containing 10 mM Hepes, 150 mM NaCl, 0.005% Tween 20 (pH 7.4). […] The final concentration of DMSO is 1%. The inhibitory potential of the compounds were determined.
Soluble human DPP-IV lacking the transmembrane anchor (Gly31-Pro766) was expressed in a recombinant YEAST-strain as Pre-Pro-alpha-mating fusion. The secreted product (rhuDPP-IV-Gly31-Pro766) was purified from fermentation broth (>90% purity).

[1] = inhibition of DPP-IV peptidase activity, 50 pM DPP-IV, 16 μM Gly-Pro-AMC, pH 7.4, 25° C., values grouped in 3 classes, read-out: IC50

T1 sequence (P27487 31-766): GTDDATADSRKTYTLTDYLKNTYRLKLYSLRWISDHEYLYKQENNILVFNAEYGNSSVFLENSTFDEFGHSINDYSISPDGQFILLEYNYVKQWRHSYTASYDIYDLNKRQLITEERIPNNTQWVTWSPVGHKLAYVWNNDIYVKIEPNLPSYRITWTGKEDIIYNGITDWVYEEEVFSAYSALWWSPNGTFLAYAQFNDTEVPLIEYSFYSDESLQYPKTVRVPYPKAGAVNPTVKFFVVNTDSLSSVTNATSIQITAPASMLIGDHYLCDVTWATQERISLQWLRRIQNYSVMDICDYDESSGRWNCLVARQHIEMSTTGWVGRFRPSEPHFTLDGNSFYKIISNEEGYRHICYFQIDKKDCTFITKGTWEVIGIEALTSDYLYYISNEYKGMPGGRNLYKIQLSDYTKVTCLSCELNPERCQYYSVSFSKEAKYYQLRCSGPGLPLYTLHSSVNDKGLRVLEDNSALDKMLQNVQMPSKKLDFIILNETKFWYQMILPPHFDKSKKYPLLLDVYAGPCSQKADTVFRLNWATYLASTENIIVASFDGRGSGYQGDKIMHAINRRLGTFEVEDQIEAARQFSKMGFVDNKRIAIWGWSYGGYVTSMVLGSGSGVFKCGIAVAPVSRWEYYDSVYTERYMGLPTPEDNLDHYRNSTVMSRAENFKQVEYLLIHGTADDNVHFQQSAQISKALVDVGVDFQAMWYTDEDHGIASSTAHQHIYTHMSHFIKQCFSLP

Row | IC50 [1] | IC50 (IC50) | Compound
1 | 101 to 1000 nM | – | N[C@@H](CC(=O)NCc1cccc(C(=O)NCc2ccc(S(N)(=O)=O)cc2)c1)Cc1ccccc1F [Example 35]
2 | 101 to 1000 nM | – | NC(CC(=O)NCC(c1ccccc1)N1CCOCC1)Cc1ccccc1F (stereo not shown) [Example 167]
3 | 101 to 1000 nM | – | N[C@@H](CC(=O)NCc1ccncc1)Cc1ccccc1F [Example 48]
4 | 101 to 1000 nM | – | N[C@@H](CC(=O)N(Cc1cccnc1)C1CC1)Cc1ccccc1F [Example 145]
5 | 1000 to 2000 nM | – | N[C@@H](CC(=O)NCc1ccccc1)Cc1ccccc1F [Example 41]
6 | 101 to 1000 nM | – | COc1ccc(CN(C)C(=O)C[C@H](N)Cc2ccccc2F)cc1 [Example 126]
7 | 101 to 1000 nM | – | Cc1ccccc1CN(C)C(=O)C[C@H](N)Cc1ccccc1F [Example 37, 3-Amino-4-(2-fluoro-phenyl)-N-methyl-N-(2-methyl-benzyl)-butyramide Hydrochloride]
8 | 101 to 1000 nM | – | N[C@@H](CC(=O)NCc1cccc(-n2cccn2)c1)Cc1ccccc1F [Example 171]
9 | 101 to 1000 nM | – | CC(NC(=O)C[C@H](N)Cc1ccccc1F)c1ccc(-n2ccnc2)cc1 (stereo partly shown) [Example 174]
10 | 101 to 1000 nM | – | N[C@@H](CC(=O)NCCc1cccc(Cl)c1)Cc1ccccc1F [Example 112]
11 | 101 to 1000 nM | – | N[C@@H](CC(=O)NCc1ccccc1F)Cc1ccccc1F [Example 117]
12 | 101 to 1000 nM | – | N[C@@H](CC(=O)NCC(c1ccccc1Cl)N1CCCC1)Cc1ccccc1F (single isomer, unassigned) [Example 132]
13 | 101 to 1000 nM | – | N#Cc1ccc(CNC(=O)C[C@H](N)Cc2ccccc2F)cc1 [Example 129]
14 | 1000 to 2000 nM | – | CN(C)CCOc1ccc(CNC(=O)C[C@H](N)Cc2ccccc2F)cc1 [Example 143]
15 | 101 to 1000 nM | – | CN(C)C(CNC(=O)C[C@H](N)Cc1ccccc1F)c1ccccc1Cl (single isomer, unassigned) [Example 84]
16 | 1000 to 2000 nM | – | N[C@@H](CC(=O)NCc1ccccc1C(F)(F)F)Cc1ccccc1F [Example 69]
17 | 101 to 1000 nM | – | N[C@@H](CC(=O)NC(CN1CCCCC1)c1ccccc1)Cc1ccccc1F (single isomer, unassigned) [Example 109]
18 | 101 to 1000 nM | – | N[C@@H](CC(=O)NCCc1ccc(S(N)(=O)=O)cc1)Cc1ccccc1F [Example 104]
19 | 1000 to 2000 nM | – | N[C@@H](CC(=O)NCc1ccc(OC(F)F)cc1)Cc1ccccc1F [Example 153]
20 | 101 to 1000 nM | – | NC(=O)c1ccc(CNC(=O)C[C@H](N)Cc2ccccc2F)cc1 [Example 31, 4-{[(3R)-3-Amino-4-(2-fluoro-phenyl)-butyrylamino]-methyl}-benzamide.trifluoroacetate Salt]
21 | 1000 to 2000 nM | – | COc1cccc(CCNC(=O)C[C@H](N)Cc2ccccc2F)c1 [Example 81]
22 | 1000 to 2000 nM | – | N[C@@H](CC(=O)NCc1cccc(-c2ccccc2)c1)Cc1ccccc1F [Example 64]
23 | 101 to 1000 nM | – | N[C@@H](CC(=O)NCc1ccc2c(c1)OCCO2)Cc1ccccc1F [Example 61]
24 | 101 to 1000 nM | – | CN(Cc1ccccc1F)C(=O)C[C@H](N)Cc1ccccc1F [Example 36, (3R)-Amino-N-(2-fluoro-benzyl)-4-(2-fluoro-phenyl)-N-methyl-butyramide Hydrochloride]
25 | 101 to 1000 nM | – | N[C@@H](CC(=O)NCc1ccc(S(N)(=O)=O)cc1)Cc1ccccc1F [Example 147]

Row | IC50 [1] | IC50 (IC50) | Compound
26 | 101 to 1000 nM | – | Cc1ccc(CNC(=O)C[C@H](N)Cc2ccccc2F)cc1 [Example 115]
27 | 101 to 1000 nM | – | N[C@@H](CC(=O)NCCN1CCCCC1)Cc1ccccc1F [Example 82]
28 | 101 to 1000 nM | – | N[C@H](Cc1ccccc1F)CS(=O)(=O)NCc1cccc(C(F)(F)F)c1 [Example 192, (R)-2-Amino-3-(2-fluoro-phenyl)-propane-1-sulphonic acid 3-trifluoromethyl-benzyl-amide]
29 | 101 to 1000 nM | – | NC(CC(=O)NCC(c1ccc(Cl)cc1)N1CCOCC1)Cc1ccccc1F (stereo not shown) [Example 158]
30 | 1000 to 2000 nM | – | N[C@@H](CC(=O)NCCc1ccc(F)cc1)Cc1ccccc1F [Example 110]
31 | 101 to 1000 nM | – | N[C@@H](CC(=O)NCc1cccc(C(=O)NC2CC2)c1)Cc1ccccc1F [Example 32, 3-{[(3R)-3-Amino-4-(2-fluoro-phenyl)-butyrylamino]-methyl}-N-cyclopropyl-benzamide. Trifluoroacetate Salt]
32 | < 100 nM | – | NC(CC(=O)NC(CN1CCCC1)c1ccccc1)Cc1ccccc1F (single isomer, unassigned) [Example 135]
33 | 101 to 1000 nM | – | N[C@@H](CC(=O)N[C@@H](CN1CCCCC1)c1ccccc1)Cc1ccccc1F [Example 173]
34 | 101 to 1000 nM | – | N[C@@H](CC(=O)NCc1c(Cl)cccc1Oc1ccccc1)Cc1ccccc1F [Example 71]
35 | 101 to 1000 nM | – | Cc1ccccc1CNC(=O)C[C@H](N)Cc1ccccc1F [Example 49]
36 | 101 to 1000 nM | – | N[C@@H](CC(=O)NCc1cc(-c2ccc(Cl)cc2)no1)Cc1ccccc1F [Example 152]
37 | 101 to 1000 nM | – | N[C@@H](CC(=O)NCc1cc(F)cc(F)c1)Cc1ccccc1F [Example 46]
38 | 101 to 1000 nM | – | N[C@@H](CC(=O)NCCc1ccccc1)Cc1ccccc1F [Example 50]
39 | 101 to 1000 nM | – | N[C@@H](CC(=O)NC(c1ccccc1)c1ccccc1)Cc1ccccc1F [Example 47]
40 | 101 to 1000 nM | – | C[S+]([O-])c1ccccc1CNC(=O)C[C@H](N)Cc1ccccc1F (single isomer, unassigned) [Example 137]
41 | 101 to 1000 nM | – | N[C@@H](CC(=O)NCCc1ccccc1Cl)Cc1ccccc1F [Example 96]
42 | 1000 to 2000 nM | – | CN1CCN(CC(c2ccccc2)N(C)C(=O)C[C@H](N)Cc2ccccc2F)CC1 (stereo partly shown) [Example 160]
43 | 101 to 1000 nM | – | N[C@@H](CC(=O)NCC(c1ccccc1Cl)N1CCOCC1)Cc1ccccc1F (stereo partly shown) [Example 156]
44 | < 100 nM | – | N[C@@H](CC(=O)NC(CN1CCCC1)c1ccccc1Cl)Cc1ccccc1F (single isomer, unassigned) [Example 90]
45 | 101 to 1000 nM | – | CS(=O)(=O)c1ccc(CNC(=O)C[C@H](N)Cc2ccccc2F)cc1 [Example 141]
46 | 101 to 1000 nM | – | N[C@@H](CC(=O)NCc1cnn(-c2ccccc2)c1)Cc1ccccc1F [Example 163]
47 | 101 to 1000 nM | – | N[C@@H](CC(=O)NCc1ccccc1N1CCCCC1)Cc1ccccc1F [Example 154]
48 | 101 to 1000 nM | – | CN(C(=O)C[C@H](N)Cc1ccccc1F)C(c1ccccc1)c1ccccc1 [Example 105]
49 | 101 to 1000 nM | – | Cn1c(CNC(=O)C[C@H](N)Cc2ccccc2F)nc2ccccc21 [Example 146]
50 | 101 to 1000 nM | – | N[C@@H](CC(=O)NCCNC(=O)c1ccccn1)Cc1ccccc1F [Example 148]

Row | IC50 [1] | IC50 (IC50) | Compound
51 | < 100 nM | – | CN(CC(c1ccccc1)N1CCOCC1)C(=O)C[C@H](N)Cc1ccccc1F (stereo partly shown) [Example 177]
52 | – | 101 to 1000 nM | N[C@@H](CC(=O)NCc1n[nH]c2ccc(Cl)cc12)Cc1ccccc1F [Example 161]
53 | 101 to 1000 nM | – | N[C@@H](CC(=O)NCC1CCCc2ccccc21)Cc1ccccc1F (single isomer, unassigned) [Example 78]
54 | 101 to 1000 nM | – | N[C@H](Cc1ccccc1F)CS(=O)(=O)NCc1ccc(C(F)(F)F)nc1 [Example 191, (R)-2-Amino-3-(2-fluoro-phenyl)-Propane-1-sulphonic acid (6-trifluoromethyl-pyridin-3-ylmethyl)-amide]
55 | 101 to 1000 nM | – | CN(Cc1cccnc1)C(=O)C[C@H](N)Cc1ccccc1F [Example 122]
56 | 101 to 1000 nM | – | CC(CNC(=O)C[C@H](N)Cc1ccccc1F)c1ccc(Cl)cc1 (single isomer, unassigned) [Example 107]
57 | 101 to 1000 nM | – | N[C@@H](CC(=O)NCc1ccccc1-c1ccccc1)Cc1ccccc1F [Example 75]
58 | 101 to 1000 nM | – | NC(=O)c1cccc(CNC(=O)C[C@H](N)Cc2ccccc2F)c1 [Example 30, 3-{[(3R)-3-Amino-4-(2-fluoro-phenyl)-butyrylamino]-methyl}-benzamide Trifluoroacetate Salt]
59 | 1000 to 2000 nM | – | C[C@H](CNC(=O)C[C@H](N)Cc1ccccc1F)c1ccccc1 [Example 93]
60 | 101 to 1000 nM | – | COc1ccc(Oc2cccc(F)c2CNC(=O)C[C@H](N)Cc2ccccc2F)cc1 [Example 142]
61 | 101 to 1000 nM | – | CN(Cc1ccccc1)C(=O)C[C@H](N)Cc1ccccc1F [Example 121]
62 | 101 to 1000 nM | – | CN(C)CCNC(=O)C[C@H](N)Cc1ccccc1F [Example 39]
63 | 101 to 1000 nM | – | N[C@@H](CC(=O)NCc1cccc(OC(F)F)c1)Cc1ccccc1F [Example 139]
64 | 1000 to 2000 nM | – | NC(CC(=O)NCCc1cccc(F)c1)Cc1ccccc1F (stereo not shown) [Example 111]
65 | < 100 nM | – | N[C@@H](CC(=O)NC(CN1CCCC1)c1ccccc1)Cc1ccccc1F (single isomer, unassigned) [Example 87]
66 | 101 to 1000 nM | – | CN(Cc1ccc(F)cc1)C(=O)C[C@H](N)Cc1ccccc1F [Example 125]
67 | 101 to 1000 nM | – | Cc1nn(-c2ccccc2)c(C)c1CNC(=O)C[C@H](N)Cc1ccccc1F [Example 140]
68 | 101 to 1000 nM | – | N[C@@H](CC(=O)NC(CN1CCOCC1)c1ccccc1)Cc1ccccc1F (single isomer, unassigned) [Example 86]
69 | 101 to 1000 nM | – | N[C@@H](CC(=O)NCc1cccc2ncccc12)Cc1ccccc1F [Example 138]
70 | 101 to 1000 nM | – | Cc1ccc(C(C)NC(=O)CC(N)Cc2ccccc2F)cc1 (stereo not shown) [Example 89]
71 | 101 to 1000 nM | – | N[C@@H](CC(=O)NCc1cc(Cl)ccc1Cl)Cc1ccccc1F [Example 51]
72 | 101 to 1000 nM | – | N[C@@H](CC(=O)NCc1ccc(Cl)cc1Cl)Cc1ccccc1F [Example 44]
73 | 101 to 1000 nM | – | C[C@@H](CNC(=O)C[C@H](N)Cc1ccccc1F)c1ccccc1 [Example 94]
